Reference: patent US10273208B2, “Screening methods for the binding affinity of chemical entities to biological molecules and NEDD4-1 inhibitors identified by the screening methods” (Northwestern University, priority 2014, dated 2019)
Entries after “also recorded” stand apart in the source; their conditions may differ.

How the values were obtained:
NEDD4-1 HECT domain [1] = target: T1, NEDD4-1 HECT domain (Homo sapiens, UniProt P46934); assay: Covalent labeling of NEDD4-1 HECT domain (gel filtration, whole protein ESI-MS); assay type: binding
T1 construct: to elute NEDD4-1 HECT domain (50 mM HEPES, 150 mM NaCl, 0.1 mM EDTA 1 mM DTT); GST (N, cleaved yes); made in house; host or cells: E. coli BL21
T1 sequence (P46934 with tags, fused parts or gaps): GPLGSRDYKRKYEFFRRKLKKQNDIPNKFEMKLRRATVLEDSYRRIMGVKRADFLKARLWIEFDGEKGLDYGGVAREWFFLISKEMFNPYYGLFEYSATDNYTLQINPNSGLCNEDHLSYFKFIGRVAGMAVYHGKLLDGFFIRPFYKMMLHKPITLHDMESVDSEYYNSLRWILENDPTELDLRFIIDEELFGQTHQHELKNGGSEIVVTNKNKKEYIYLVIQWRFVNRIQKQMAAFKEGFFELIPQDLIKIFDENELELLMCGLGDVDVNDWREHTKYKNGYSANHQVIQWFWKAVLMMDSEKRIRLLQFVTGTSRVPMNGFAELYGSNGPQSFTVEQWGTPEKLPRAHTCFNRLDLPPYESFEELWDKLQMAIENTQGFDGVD
Method: 10 μM of NEDD4-1 HECT domain in 50 mM HEPES 150 mM NaCl 0.1 mM EDTA 1 mM DTT pH 7.5 was treated with a mixture of ten fragments (from 10 mM each DMSO stock solution mixtures; final concentrations: 100 μM of each fragment, and 1% DMSO). Fragment structures and mixture compositions were the same as reported previously. The reaction mixture was incubated for 4 h at 23° C. before being passed through Zeba gel filtration columns (Thermo, 7K MWCO) to remove unreacted fragments. The protein solution was then immediately analyzed by whole protein LC/ESI-MS.
Accurate-mass data were obtained on an Agilent 6210A LC-TOF mass spectrometer in positive ion mode using electrospray ionization. Samples were chromatographed on the LC-TOF instrument using a Poroshell 120 EC-C18 HPLC column (2.1*50 mm, 2.7 micron), an Agilent Series 1200 HPLC binary pump, and an Agilent Series 1200 autoinjector. The HPLC column was held at 45° C. and the autosampler was held at 8° C. Mobile Phase A was a solution of 0.1% formic acid in water:acetonitrile (19:1). Mobile Phase B was a solution of 0.1% formic acid in acetonitrile. The flow rate was set to 250 μL/min. The gradient used was 0% B for 2 minutes, ramping linearly to 90% B from 2 minutes to 5 minutes, holding at 90% B from 5 minutes to 7 minutes, and then returning to 0% B at 7.1 minutes. The column was allowed to equilibrate for 2.7 minutes before the next injection was initiated. The eluent from the column was diverted to waste for the first 2 minutes. The spectra were acquired from 301 to 3200 daltons using a gas temperature of 340° C., a gas flow of 7 liters/min, and the nebulizer gas at 35 psi. The following voltages were used: capillary 4200 V, fragmentor 230V, skimmer 64V, and octapole RF peak 250V. Spectra were acquired at a rate of 1 spectra/sec. The data was processed using MassHunter software version B.02.00. Maximum entropy deconvolutions were performed with a Mass Step of 1, S/N Threshold of 30, Average Mass at 90% of Peak Height, and 5 Charge States Minimum.
10 μM of NEDD4-1 HECT domain in 50 mM HEPES 150 mM NaCl 0.1 mM EDTA 1 mM DTT pH 7.5 was treated with 1 mM of inhibitor 1 or 2 (from 100 mM DMSO stock solution; final concentrations: 1 mM of inhibitor, 1% DMSO, and 0.2% CHAPS to solubilize the inhibitors at 1 mM). The reaction mixture was incubated for 4 h at 23° C. before being passed through Zeba gel filtration columns (Thermo, 7K MWCO) to remove unreacted inhibitor. The protein solution was then immediately used for crystallization or enzymatic assay.

NEDD4-1 HECT domain [2] = target: T1, NEDD4-1 HECT domain; assay: In vitro ubiquitination assays; assay type: biochemical; details: NEDD4-1 HECT pretreated with 1 mM compound for 3 h, quenched after 5 min
Method: FIG. 15A, FIG. 15B and FIG. 15C. (FIG. 15A) Enzymatic assay with compounds 1, 2, and 4. NEDD4-1 HECT domain was pretreated with 1% DMSO (lane 1), or 1 mM of compounds 1 (lane 2), 2 (lane 3), or 4 (lane 4) for 3 h before beginning the assay. The reaction mixtures were quenched after 5 min, and polyubiquitin chains were detected by Western blot with anti-ubiquitin antibody. (FIG. 15B) Cartoon depiction of the crystal structure of NEDD4-1:1 with key side chains and the inhibitor shown as spheres. (FIG. 15C) Close-up view of the inhibitor-binding site with the key side chains depicted as sticks and colored by atom type. The 2FO-FC electron density map (mesh, contoured at 1.0 σ) is presented for Cys^627 and 1.
FIG. 16A, FIG. 16B, FIG. 16C and FIG. 16D. (FIG. 16A) and (FIG. 16B) Compound 6 disrupts the NEDD4-1:Ub interaction as shown by a fluorescence polarization assay. Mean±s.e.m., n=3. (FIG. 16C) Compound 6 inhibits the ability of NEDD4-1 to polyubiquitinate the Wbp2-C-K222 protein substrate. NEDD4-1 was pretreated with 1% DMSO (lane 1), or 100 μM of compound 6 (lane 2) or compound 4 (lane 3) for 1.5 h before beginning the assay. Reaction mixtures were quenched at the indicated times and the amount of ubiquitinated Wbp2-C-K222 was determined using in-gel fluorescence. (FIG. 16D) Quantification of polyubiquitin chains in FIG. 16B. Mean±s.e.m., n=2. […]

[3] = target: T2, NEDD4-1 HECT:ubiquitin-fluorescein interaction (Homo sapiens, UniProt P46934); assay: Fluorescence polarization assay of NEDD4-1:Ub binding; details: NEDD4-1 HECT 7.98 μM, ubiquitin-fluorescein 50 nM, 1 h
T2 construct: to elute NEDD4-1 HECT domain (50 mM HEPES, 150 mM NaCl, 0.1 mM EDTA 1 mM DTT); GST (N, cleaved yes); made in house; host or cells: E. coli BL21
T2 sequence (P46934 with tags, fused parts or gaps): T1 sequence (P46934 with tags, fused parts or gaps)
Method: NEDD4-1 HECT (7.98 μM) and ubiquitin-fluorescein (50 nM, Lifesensors) in 50 mM HEPES pH 7.5 150 mM NaCl 0.1 mM EDTA were treated with DMSO or varying concentrations of inhibitor in 1% DMSO in black 96 well plates. Changes in fluorescence polarization were monitored over 1 h with a Biotek Synergy 4 plate reader. Slopes of ln(polarization) vs. time were plotted with GraphPad Prism and used to determine the pseudo-first order rate contstant kobs for a given concentration of inhibitor. The values of kinact/KI for each inhibitor were then determined by fitting the kobs vs. [inhibitor] plot to the equation kobs=kinact*[inhibitor]/([inhibitor]+KI). All reactions were performed in triplicate and plotted as mean±s.e.m.

[4] = target: T3, NEDD4-1 (~120 kDa band) in TC71 Ewing's sarcoma cells (Homo sapiens, UniProt P46934); assay: Cell-based selectivity studies with alkyne probe 15, click reaction, in-gel fluorescence; details: pretreatment 1 h, then 2 μM probe 15
T3 sequence (P46934 1-900 isoform P46934-4): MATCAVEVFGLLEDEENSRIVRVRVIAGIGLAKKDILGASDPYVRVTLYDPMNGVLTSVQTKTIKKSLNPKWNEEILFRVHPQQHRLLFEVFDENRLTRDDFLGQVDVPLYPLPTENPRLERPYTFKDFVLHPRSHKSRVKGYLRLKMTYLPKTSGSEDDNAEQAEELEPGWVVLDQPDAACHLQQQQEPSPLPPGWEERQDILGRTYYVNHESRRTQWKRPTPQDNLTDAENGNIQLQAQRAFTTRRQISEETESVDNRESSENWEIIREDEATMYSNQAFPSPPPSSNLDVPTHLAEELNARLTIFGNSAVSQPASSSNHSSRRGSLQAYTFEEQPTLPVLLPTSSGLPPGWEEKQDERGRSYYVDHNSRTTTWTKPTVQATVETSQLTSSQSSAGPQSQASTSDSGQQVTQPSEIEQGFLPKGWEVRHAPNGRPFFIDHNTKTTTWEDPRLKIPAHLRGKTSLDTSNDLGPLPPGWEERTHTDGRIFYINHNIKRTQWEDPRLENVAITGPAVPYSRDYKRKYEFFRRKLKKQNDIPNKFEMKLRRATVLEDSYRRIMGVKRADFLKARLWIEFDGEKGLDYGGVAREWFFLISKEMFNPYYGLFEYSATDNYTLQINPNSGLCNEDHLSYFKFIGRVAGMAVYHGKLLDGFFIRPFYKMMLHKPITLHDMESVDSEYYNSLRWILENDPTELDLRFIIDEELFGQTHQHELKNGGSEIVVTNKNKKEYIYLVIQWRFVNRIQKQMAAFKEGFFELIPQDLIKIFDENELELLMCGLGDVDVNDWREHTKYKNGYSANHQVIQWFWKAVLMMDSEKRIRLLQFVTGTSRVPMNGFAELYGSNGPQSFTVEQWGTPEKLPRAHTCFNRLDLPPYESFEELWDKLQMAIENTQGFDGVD
Method: We treated TC71 Ewing's sarcoma cells (NEDD4-1 positive),^[6b] with 2 μM of compound 15, followed by lysis, click reaction with rhodamine azide, and in-gel fluorescence.^[15]
TC71 cells were cultured in Iscove's Modified Dulbecco's Medium (IMDM), 20% (v/v) FBS, 4 mM glutamine, and lx ITS (5 μg/mL insulin, 5 μg/mL transferrin, 5 ng/mL selenous acid). Cells were grown to confluence in 6-well plates (9.6 cm^2 per well). The growth medium was aspirated off and replaced with 2 mL serum-free IMDM containing 0.1% DMSO or the indicated concentration of inhibitor in 0.1% DMSO. After 1 h incubation time at 37° C., cells were treated with 0.1% DMSO or 2 μM of probe 15 in 0.1% DMSO for an additional hour. […] Proteins were then resolved by SDS-PAGE 7.5% or 15% acrylamide gels, and subjected to in-gel scanning fluorescence imaging on the Typhoon 9400 at 610 nm excitation. The gel was then stained with Coomassie Brilliant Blue to visualize all proteins. Western blots were performed with anti-NEDD4-1 antibody from Cell Signaling (2740S).

COC(=O)/C=C/CNC(=O)c1c(C)n(C)c2ccc(OC)cc12 [Compound 1, Methyl(E)-4-(5-methoxy-1,2-dimethyl-1H-indole-3-carboxamido)but-2-enoate]
labeling of NEDD4-1 (NEDD4-1 HECT domain [1]; compound 100 μM, NEDD4-1 10 μM, 4 h): ~40%
labeling of NEDD4-1 HECT domain (qualitative) (NEDD4-1 HECT domain [1]; compound 100 μM, NEDD4-1 HECT 10 μM, 4 h): monolabel
labeling of NEDD4-1 in the presence of ubiquitin (NEDD4-1 HECT domain [1]; compound 100 μM, NEDD4-1 HECT 10 μM, ubiquitin 60 μM, 4 h): completely inhibited
modification of NEDD4-1 HECT domain at 1 mM (NEDD4-1 HECT domain [1]; compound 1 mM, 3-4 h): complete modification; also recorded: fully labels NEDD4-1 HECT domain after 3 h, with minor non-specific dilabeling
covalent modification of NEDD4-1 HECT domain in the mixture screen (NEDD4-1 HECT domain [1]; ten mixtures of ten fragments, 100 μM each, 4 h): weak covalent modifiers
polyubiquitin chain assembly by NEDD4-1 (anti-ubiquitin Western blot) (NEDD4-1 HECT domain [2]): defective at assembling polyubiquitin chains; also recorded: inhibition of polyubiquitization

COC(=O)/C=C/CNC(=O)c1c[nH]nc1-c1cccc(F)c1 [Compound 4, Methyl(E)-4-(3-(3-fluorophenyl)-1H-pyrazole-4-carboxamido)but-2-enoate]
polyubiquitin chain assembly by NEDD4-1 (anti-ubiquitin Western blot) (NEDD4-1 HECT domain [2]): did not affect NEDD4-1 activity

COC(=O)/C=C/CNC(=O)c1c(C)n(C2CCCC2)c2ccc(OC)cc12 [Compound 6]
kinact [3]: 5.8e-05 s⁻¹
KI (inactivation constant) ([3]; read-out: K1 (disruption of NEDD4-1:Ub binding)): 29.3 µM

COC(=O)/C=C/CNC(=O)c1c(C)n(C)c2ccccc12 [Compound 11, Methyl(E)-4-(1,2-dimethyl-1H-indole-3-carboxamido)but-2-enoate]
effect of pretreatment on probe 15 labeling of the ~120 kDa band (NEDD4-1) [4]: inactive
